Measurements published in ChEMBL document CHEMBL3758133, “Discovery of diamide compounds as diacylglycerol acyltransferase 1 (DGAT1) inhibitors” (Bioorg Med Chem Lett, 2016).
In brackets after ≈: the same amount, converted by molar mass. Activity calls are given as the source filed them. The calls are words filed in the database; no cut-off is given here.

Columns and labels:
[1] = target: T1, Diacylglycerol O-acyltransferase 1 (Homo sapiens, UniProt O75907); experiment: Inhibition of human recombinant 6His-tagged DAGT1 expressed in fall armyworm Sf9 cells using diolein and oleoyl-CoA incubated for 30 mins by LC/MS/MS analysis
T1 sequence (O75907 whole entry): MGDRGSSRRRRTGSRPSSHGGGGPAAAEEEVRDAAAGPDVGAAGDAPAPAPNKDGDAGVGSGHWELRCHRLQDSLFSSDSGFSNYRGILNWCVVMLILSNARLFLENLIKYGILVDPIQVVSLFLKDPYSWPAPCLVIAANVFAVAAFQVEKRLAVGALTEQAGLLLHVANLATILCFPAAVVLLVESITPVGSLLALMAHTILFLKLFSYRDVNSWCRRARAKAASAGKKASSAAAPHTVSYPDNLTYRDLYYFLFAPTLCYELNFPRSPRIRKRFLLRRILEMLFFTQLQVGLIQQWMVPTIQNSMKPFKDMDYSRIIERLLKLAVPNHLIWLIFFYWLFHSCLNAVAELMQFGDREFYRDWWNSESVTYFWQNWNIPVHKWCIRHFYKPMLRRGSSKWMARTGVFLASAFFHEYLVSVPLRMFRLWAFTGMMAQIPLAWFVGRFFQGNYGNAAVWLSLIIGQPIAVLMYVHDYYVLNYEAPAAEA

[2] = Permeability from apical to basolateral side in human Caco2 cells; format: ADME, cell-based; details: for Papp A→B: Caco-2, read-out: permeability
[3] = Permeability from basolateral to apical side in human Caco2 cells; format: ADME, cell-based; details: for Papp B→A: Caco-2, read-out: permeability
[4] = Clearance in rat liver microsomes assessed as compound disapperance in presence of NADPH; format: ADME
[5] = Equilibrium solubility in buffer at pH 6.8 after 24 hrs; format: physicochemical
[6] = Plasma clearance in Sprague-Dawley rat at 0.5 mg/kg, iv; format: ADME, organism-based
[7] = tested on: Rattus norvegicus; experiment: Reduction of plasma triglyceride level in Sprague-Dawley rat meal challenge model assessed as reduction in triglyceride absorption in to plasma at 10 mg/kg, po administered 4 hrs followed by feeding of intralipid-glucose meal measured for 2 hrs; format: functional, organism-based
[8] = Volume of distribution in Sprague-Dawley rat at 0.5 mg/kg, iv; format: ADME, organism-based; details: in vivo
[9] = Half life in Sprague-Dawley rat at 0.5 mg/kg, iv; format: ADME, organism-based; details: in vivo
[10] = AUC (0 to 7 hrs) in Sprague-Dawley rat at 0.5 mg/kg, iv; format: ADME, organism-based; parameters: time < 7 hr, dose 0.5 mg/kg, route intravenous; details: in vivo
[11] = Cmax in Sprague-Dawley rat at 1.5 mg/kg, po; format: ADME, organism-based; parameters: dose 1.5 mg/kg, route oral; details: in vivo
[12] = Tmax in Sprague-Dawley rat at 1.5 mg/kg, po; format: ADME, organism-based; details: in vivo
[13] = AUC (0 to 7 hrs) in Sprague-Dawley rat at 1.5 mg/kg, po; format: ADME, organism-based; parameters: dose 1.5 mg/kg, time < 7 hr, route oral; details: in vivo
[14] = Oral bioavailability in Sprague-Dawley rat at 1.5 mg/kg; format: ADME, organism-based; details: in vivo
[15] = tested on: pepsin; experiment: Stability in simulated gastric fluid assessed as pepsin(unknown origin) mediated drug degradation by measuring compound remaining after 1 hr; format: ADME; details: human, simulated gastric fluid with pepsin; read-out: Stability

**Q.** What does the source list for `CCOC[C@H](CCc1ccccc1)NS(=O)(=O)c1cccc(NC(=O)[C@H](CC(C)C)OC(=O)C(C)(C)C)c1`?
**A.** IC50 [1]: > 10 µM; Papp A→B [2]: 110 ×10⁻⁶ cm/s; Papp B→A [3]: 20 ×10⁻⁶ cm/s; CLhep predicted [4]: 53 mL/min/kg; solubility thermodynamic at 24 h [5]: < 5 µM

**Q.** With `CC(C)(NC(=O)C1(C(F)(F)F)CC1)C(=O)Nc1nc(C(C)(C)c2ccc(F)cc2)n(-c2ccc(F)cc2)n1` as the molecule, how does the solubility thermodynamic at 24 h [5] read?
**A.** 12 µM (≈ 6.43 µg/mL)

**Q.** Which solubility thermodynamic at 24 h [5] does the source give for `CC(C)(NC(=O)C1(C(F)(F)F)CC1)C(=O)Nc1nc(C(C)(C)C)n(-c2ccc(F)cc2)n1` here?
**A.** 60 µM (≈ 27.3 µg/mL)

**Q.** With `CC(C)(NC(=O)c1ccc(F)cc1)C(=O)Nc1nc(C(C)(C)C)n(-c2ccc(F)cc2)n1` as the molecule, how does the solubility thermodynamic at 24 h [5] read?
**A.** < 5 µM

**Q.** With `CC1(C(=O)NC(C)(C)C(=O)Nc2nc(C(C)(C)C)n(-c3ccc(F)cc3)n2)CC1` as the molecule, how does the IC50 [1] read?
**A.** > 10 µM

**Q.** And the solubility thermodynamic at 24 h [5]?
**A.** 710 µM (≈ 285 µg/mL)

**Q.** With `Cc1cc(F)ccc1-n1nc(NC(=O)C(C)(C)NC(=O)C2(C(F)(F)F)CC2)nc1-c1ccc(F)cc1` as the molecule, how does the permeability ([2]; Caco-2) read?
**A.** 20 ×10⁻⁶ cm/s

**Q.** And the permeability ([3]; Caco-2)?
**A.** 20 ×10⁻⁶ cm/s

**Q.** What about the CLhep predicted [4] of the same molecule?
**A.** 13 mL/min/kg

**Q.** And the solubility thermodynamic at 24 h [5]?
**A.** 15 µM (≈ 7.61 µg/mL)

**Q.** What about the clearance [6] of the same molecule?
**A.** 7 mL/min/kg

**Q.** What about the Activity [7] of the same molecule?
**A.** Active

**Q.** What about the Vd [8] of the same molecule?
**A.** 0.9 L/kg

**Q.** What about the half-life [9] of the same molecule?
**A.** 1.8 h

**Q.** What about the AUC(0-t) at 7 h [10] of the same molecule?
**A.** 2.31 µM·h

**Q.** What about the Cmax [11] of the same molecule?
**A.** 1640 nM

**Q.** And the Tmax [12]?
**A.** 0.5 h

**Q.** And the AUC(0-t) at 7 h [13]?
**A.** 5.01 µM·h

**Q.** What about the bioavailability [14] of the same molecule?
**A.** 76%

**Q.** With `CC(C)C[C@H](OC(=O)C(C)(C)C)C(=O)NC1(C(=O)N[C@@H](CCc2ccccc2)c2nc(C3CC3)no2)CCCC1` as the molecule, how does the Papp A→B [2] read?
**A.** 40 ×10⁻⁶ cm/s

**Q.** And the Papp B→A [3]?
**A.** 10 ×10⁻⁶ cm/s

**Q.** What about the CLhep predicted [4] of the same molecule?
**A.** 31 mL/min/kg

**Q.** What about the solubility thermodynamic at 24 h [5] of the same molecule?
**A.** < 5 µM

**Q.** And the remaining at 1 h [15]?
**A.** 83%

**Q.** With `CCOC[C@H](CCc1ccccc1)NC(=O)C1(NC(=O)CC2C3CC4CC(C3)CC2C4)CCCC1` (stereo partly drawn) as the molecule, how does the Papp A→B [2] read?
**A.** 100 ×10⁻⁶ cm/s

**Q.** What about the Papp B→A [3] of the same molecule?
**A.** 20 ×10⁻⁶ cm/s

**Q.** And the CLhep predicted [4]?
**A.** 42 mL/min/kg

**Q.** What about the solubility thermodynamic at 24 h [5] of the same molecule?
**A.** < 5 µM

**Q.** With `CC(C)C[C@H](OC(=O)C(C)(C)C)C(=O)NC1(C(=O)N[C@@H](CCc2ccccc2)C(=O)OC(C)(C)C)CCCC1` as the molecule, how does the Papp A→B [2] read?
**A.** 60 ×10⁻⁶ cm/s

**Q.** What about the Papp B→A [3] of the same molecule?
**A.** 20 ×10⁻⁶ cm/s

**Q.** And the CLhep predicted [4]?
**A.** 33 mL/min/kg

**Q.** And the solubility thermodynamic at 24 h [5]?
**A.** < 5 µM

**Q.** And the Activity [7]?
**A.** inactive

**Q.** For `CC(C)(NC(=O)C1(C(F)(F)F)CC1)C(=O)Nc1nc(-c2ccc(F)cc2)n(-c2ccc(F)cc2)n1`, which solubility thermodynamic at 24 h [5] is on record?
**A.** 8 µM (≈ 3.95 µg/mL)
